Assay: PET imaging in rat (Planar Positron Imaging System)
Conditions: injected from tail vein, integrated PET image from 15 min to 30 min after administration (FIG. 4A, 4B)
Experimental: Hydroxylation of 2,6-dideoxy-6-iodo-D-glucose and 6-iodo-6-deoxy-D-glucose was performed in the glass filter reactor as shown in FIG. 1. Sep-Pak cartridges were purchased from Waters. The cyclotron is OSCAR-12 (NKK/Oxford). The target gas consisted of 1.5% O2 in ^15N2. PET scans were obtained on Planar Positron Imaging System (Hamamatsu Photonics K.K.).
A solution of 2,6-dideoxy-6-iodo-D-glucose (274 mg, 1.0 mmol), tributyltin hydride (807 μl, 3.0 mmol) and AIBN (4.0 mg, 0.025 mmol) in PhCF3 (20.0 ml)/C10F18 (4.5 ml)/2-BuOH (3.0 ml) was placed in the reactor, which was on the automated synthetic apparatus (FIG. 3). Proton bombardment (beam current 50 μA) on target gas started (N2/O2=98.5/1.5, target gas pressure=6 kg/cm^2). The beginning of the bombardment was defined as 0 sec for convenience. Cold gas (N2/O2=[…], 180 ml/min) was provided and heating with temperature-controlled air (80° C.) started simultaneously at 2 min 40 sec. At 4.0 min, the target gas was evacuated from the targeting area in the cyclotron system (20 ml/min). The target gas was mixed with cold N2/O2 gas (target gas/N2/O2=20/177/3, 200 ml/min), and the resulting gas was then supplied to the reaction vessel. […] At 5 min 20 sec, the bombardment stopped. However, evacuation of the target gas continued. Triphenylphosphine (262 mg, 1.0 mmol in 1.5 ml of PhCF3) was added at 6.0 min. […]

With `O=CCC(O)C(O)C(O)C[15OH]` [[^15O]2-DG, ^15[O]2-deoxy-D-glucose] the “accumulation of tracer in integrated PET image” value was “accumulation of [^15O]2-DG in heart, kidney and bladder”.

From patent publication US7883687B2, “15O-labeled monosaccharide and producing method thereof” (Astellas Pharma Inc., priority 2004, dated 2011)
